Laboratory results: patent publication US20060046966A1, “Antipicornaviral compounds and compositions, their pharmaceutical uses, and materials for their synthesis” (Agouron Pharmaceuticals, Inc., priority 1998, published 2006)

How the values were obtained:
HRV (1A) = experiment: Antirhinoviral H1-HeLa cell culture assay, HRV serotype 1A; assay type: cell-based; conditions: Human rhinovirus sp., H1-HeLa cells, XTT
Experimental: (§1) In this cell protection assay, the ability of compounds to protect cells against HRV infection was measured by the XTT dye reduction method, which is described in Weislow et al., J. Natl. Cancer Inst. 1989, vol. 81, 577-586.
(§2) H1-HeLa cells were infected with HRV-14 at a multiplicity of infection (m.o.i.) of 0.13 (virus particles/cell) or mock-infected with medium only. Infected or mock-infected cells were resuspended at 8×10^5 cells per mL, and incubated with appropriate concentrations of the compounds to be tested. Two days later, XTT/PMS was added to test plates and the amount of formazan produced was quantified spectrophotometrically at 450/650 nm. The EC50 value was calculated as the concentration of compound that increased the percentage of formazan production in compound-treated, virus-infected cells to 50% of that produced by compound-free, mock-infected cells. The 50% cytotoxic dose (CC50) was calculated as the concentration of compound that decreased the percentage of formazan produced in compound-treated, mock-infected cells to 50% of that produced by compound-free, mock-infected cells. The therapeutic index (TI) was calculated by dividing the CC50 value by the EC50 value.
(§3) All strains of human rhinovirus (HRV) for use in this assay were purchased from American Type Culture Collection (ATCC), except for HRV serotype-14 (produced from the infectious cDNA clone constructed by Dr. Robert Rueckert, Institute for Molecular Virology, University of Wisconsin, Madison, Wis.). HRV stocks were propagated and viral assays were performed in H1-HeLa cells (ATCC). Cells were grown in minimal essential medium with 10% fetal bovine serum, available from Life Technologies (Gaithersburg, Md.).
(§4) The compounds were tested against control compounds WIN 51711, WIN 52084, and WIN 54954 (obtained from Sterling-Winthrop Pharmaceuticals), Pirodavir (obtained from Janssen Pharmaceuticals), and Pleconaril (prepared according to the method described in Diana et al., J. Med. Chem 1995, vol. 38, 1355). Antiviral data obtained for the test compounds are shown in Tables 1 and 3, where all data are for HRV serotype-14 unless otherwise noted in parentheses.

HRV (89) = experiment: Antirhinoviral H1-HeLa cell culture assay, HRV serotype 89; assay type: cell-based, human rhinovirus; conditions: Human rhinovirus sp., H1-HeLa cells, XTT
Experimental: as §1, §2, §3, §4

HRV (39) = experiment: Antirhinoviral H1-HeLa cell culture assay, HRV serotype 39; assay type: cell-based, human rhinovirus; conditions: Human rhinovirus sp., H1-HeLa cells, XTT
Experimental: as §1, §2, §3
(§5) The compounds were tested against control compounds WIN 51711, WIN 52084, and WIN 54954 (obtained from Sterling-Winthrop Pharmaceuticals), Pirodavir (obtained from Janssen Pharmaceuticals), and Pleconaril (prepared according to the method described in Diana et al., J. Med. Chem 1995, vol. 38, 1355). […]

HRV (9) = experiment: Antirhinoviral H1-HeLa cell culture assay, HRV serotype 9; assay type: cell-based, human rhinovirus; conditions: Human rhinovirus sp., H1-HeLa cells, XTT
Experimental: as §1, §2, §3, §5

HRV (17) = experiment: Antirhinoviral H1-HeLa cell culture assay, HRV serotype 17; assay type: cell-based, human rhinovirus; conditions: Human rhinovirus sp., H1-HeLa cells, XTT
Experimental: as §1, §2, §3, §5

HRV (25) = experiment: Antirhinoviral H1-HeLa cell culture assay, HRV serotype 25; assay type: cell-based; conditions: Human rhinovirus sp., H1-HeLa cells, XTT
Experimental: as §1
as §2, with “value. […]” for “value.”

[1] = test system: Coxsackievirus type B3 (CVB-3); experiment: Anticoxsackieviral cell culture assay, CVB-3; assay type: cell-based; conditions: 24 h, Strain CVB-3, H1-HeLa cells, one day, XTT, read-out: EC50
Experimental: Coxsackievirus types A-21 (CAV-21) and B3 (CVB-3) were purchased from American Type Culture Collection (ATCC, Rockville, Md.). Virus stocks were propagated and antiviral assays were performed in H1-HeLa cells (ATCC). Cells were grown in minimal essential medium with 10% fetal bovine serum (Life Technologies, Gaithersburg, Md.).
The ability of compounds to protect cells against either CAV-21 or CVB-3 infection was measured by the XTT dye reduction method. This method is described in Weislow et al., J. Natl. Cancer Inst. 1989, vol. 81, 577-586. H1-HeLa cells were infected with CAV-21 or CVB-3 at a multiplicity of infection (m.o.i.) of 0.025 or 0.075, respectively, or mock-infected with medium only. H1-HeLa cells were plated at 4×10^4 cells per well in a 96-well plate and incubated with appropriate concentrations of the test compound. One day (CVB-3) or two days (CAV-21) later, XTT/PMS was added to test plates and the amount of formazan produced was quantified spectrophotometrically at 450/650 nm. The EC50 was calculated as the concentration of compound that increased the formazan production in compound-treated, virus-infected cells to 50% of that produced by compound-free, uninfected cells. The 50% cytotoxic dose (CC50) was calculated as the concentration of compound that decreased formazan production in compound-treated, uninfected cells to 50% of that produced in compound-free, uninfected cells. The therapeutic index TI) was calculated by dividing the CC50 by the EC50.
The compounds were tested against control compounds WIN 54954 (obtained from Sterling-Winthrop Pharmaceuticals), Pirodavir (obtained from Janssen Pharmaceuticals), and Pleconaril (prepared according to Diana et al., J. Med. Chem. 1995, 38, 1355).

[2] = test system: Echovirus type 11 (EV 11); experiment: Anti-echoviral cell culture assay, EV 11; assay type: cell-based; conditions: Enterovirus B, MRC5, 96 h; Strain EV-11; MRC-5 cells; four days; XTT; read-out: EC50
Experimental: Echovirus type 11 (EV 11) and enterovirus type 70 (EV 70) were purchased from ATCC (Rockville, Md.). Virus stocks were propagated and antiviral assays were performed in MRC-5 cells (ATCC). Cells were grown in minimal essential medium with 10% fetal bovine serum (Life Technologies, Gaithersburg, Md.).
The ability of compounds to protect cells against either EV 11 or EV 70 infection was measured by the XTT dye reduction method (Weislow et al., J. Natl. Cancer Inst. 1989, vol. 81, 577-586). MRC-5 cells were infected with EV 11 or EV 70 at an m.o.i. of 0.003 or 0.004, respectively, or mock-infected with medium only. Infected or uninfected cells were added at 1×10^4 cells per well and incubated with appropriate concentrations of compound. Four days later, XTT/PMS was added to test plates, and the amount of formazan produced was quantified spectrophotometrically at 450/650 nm. The EC50 was calculated as the concentration of compound that increased the formazan production in compound-treated, virus-infected cells to 50% of that produced by compound-free, uninfected cells. The 50% cytotoxic dose (CC50) was calculated as the concentration of compound that decreased formazan production in compound-treated, uninfected cells to 50% of that produced in compound-free, uninfected cells. The therapeutic index (TI) was calculated by dividing the CC50 by the EC50.
The compounds were tested against control compounds Pirodavir (obtained from Janssen Pharmaceuticals) and Pleconaril (prepared according to Diana et al., J. Med. Chem. 1995, vol. 38, 1355). Antiviral data obtained for the test compounds against strain EV 11 and EV 70 are shown below in Table 5.

## CCOC(=O)/C=C/[C@H](C[C@@H]1CCNC1=O)NC(=O)[C@@H](CC(=O)[C@@H](NC(=O)c1cc(C)on1)C(C)C)Cc1ccc(F)cc1 [Compound B-2, Ethyl-3-{(5′-Methylisoxazole-3′-carbonyl)-L-ValΨ(COCH2)-L-(4-F-Phe)-L-((S)-Pyrrol-Ala)}-E-Propenoate]
HRV (1A)
  EC50: 20 nM
HRV (89)
  EC50: 9 nM
HRV (39)
  EC50: 50 nM
HRV (9)
  EC50: 6 nM
HRV (17)
  EC50: 10 nM
HRV (25)
  EC50: 30 nM
[1]
  EC50: 180 nM
[2]
  EC50: 10 nM
